Reference: US20250223560A1, “NOX4 INHIBITOR COMPOSITIONS AND METHODS FOR REGENERATION OF DYSTROPHIC MUSCLE” (FULCRUM THERAPEUTICS, INC., priority 2022, published 2025)

Key:
D2.mdx mice [1] = experiment: 3-month GKT831 treatment of D2.mdx mice, muscle histology and immunofluorescence; format: in vivo, mouse; conditions: 60 mg/kg P.O. Q.D.
Excerpt: D2.mdx (Jax #013141) and D2.WT (Jax #000671) mice were originally obtained from Jackson Laboratory. The Nox4^KO:mdx mouse line was created by crossing the Nox4^tm1Klr knockout allele ((23); Jax #022996) onto the D2.mdx background for five generations, as previously reported (15). Following the second backcross, only Nox4^tm1Klr/+ mice homozygous for the DBA/2J polymorphism of […] were selected for continued line development (16). This is because both Nox4 and Ltbp4 are located on murine chromosome 7, and cross-over is required for both alleles to segregate together. At the completion of the backcrossing, Nox4 heterozygous breed pairs were mated to produce Nox4^WT:mdx and Nox4^KO:mdx littermates that were used in experiments. All mice were genotyped for Nox4 using primer sequences provided by Jackson Laboratory, and for Ltbp4 and mdx alleles using published genotyping primers (16).
(§1) Mice were housed 3-5 mice per cage, randomly assigned into groups, provided ad libitum access to food (NIH-31 Open formulation diet; Envigo #7917), water, and enrichment, and maintained on a 12-hour light/dark system. Once daily (Q.D.) GKT831 (purchased from Ambeed, Inc.) was administered orally (P.O.) suspended at a concentration of 36 mg/mL in a vehicle consisting of sterilized sunflower seed oil (Sigma-Aldrich). […] The GKT831 treatment group received a dose of 60 mg/kg (21). All animal procedures were approved and conducted in accordance with the University of Florida IACUC and reported using the recommendations of ARRIVE guidelines.
(§2) OCT-embedded murine tissues were cryo-sectioned at […] and fixed in 4% PFA. Immunofluorescent analysis was performed using anti-NOX4 (1:2000; Abcam #13303), anti-laminin (1:800; Novus #MAB2549), anti-vimentin (1:1000; Novus #MB300), anti-PDGFRα (1:500; R&D Systems #AF1062), anti-SMA (1:1000; Abcam #ab5694), anti-periostin (1:500, Abcam #ab14041), anti-Pax7 (1:100; R&D Systems #MAB1675), anti-Myosin X (1:800; Sigma #HPA024223) and anti-active caspase-3 (1:1000; Cell Signaling 49661) primary antibodies. Mouse tissue sections incubated with mouse monoclonal antibodies were first incubated with a solution containing donkey anti-mouse IgG AffiniPure Fab fragments (1:25 in PBS; Jackson ImmunoResearch #715-007-003) for one hour prior to blocking. Following overnight incubation in primary antibody, sections were rinsed with PBS and incubated with the appropriate species-specific secondary antibody (1:500 dilution). Lipofuscin-dependent autofluorescence was quenched using a 0.1% solution of Sudan black B following secondary antibody incubation. Slides were cover-slipped using Prolong Gold mounting reagent (Invitrogen). Images were acquired using a Leica SP8 confocal microscope. All comparative images were stained simultaneously and acquired using identical settings. Human samples were obtained through the National Disease Research Interchange (Philadelphia, PA).
Picrosirius red staining was performed as previously described (14) following decalcification of muscle sections using Formical-2000 (StatLab). Slides were visualized with a Leica DMR microscope, and images were acquired using a Leica DFC310FX camera interfaced with Leica LAS X software. All comparative images were stained simultaneously and acquired using identical settings. Images were processed and analyzed by investigators blinded to study groups using ImageJ software, as previously described (14). Image quantification for each sample consisted of the mean value from five independent and randomly-selected fields of view for each muscle section.

D2.mdx mice [2] = experiment: Seven-day GKT831 treatment of six-month-old D2.mdx mice (apoptosis, gene expression); format: in vivo, mouse; conditions: gastrocnemius, 60 mg/kg, seven days, vs vehicle
Protocol: as §1, §2
Gene expression analysis was conducted as previously described (17) using the following mouse-specific primers: Col1a2 (forward) 5′-ATGGTGGCAGCCAGTTTGAA-3′ (SEQ ID NO: 1) and (reverse) 5′-TCCAGGTACGCAATGCTGTT-3′ (SEQ ID NO: 2); Acta2 (forward) 5′-CTACTGCCGAGCGTGAGATTGTCC-3′ (SEQ ID NO: 3) and (reverse) 5′-GAGGGCCCAGCTTCGTCGTATT-3′ (SEQ ID NO: 4); 116 (forward) 5′-AACCACGGCCTTCCCTACTTC-3′ (SEQ ID NO: 5) and (reverse) 5′-TCTGGCTTTGTCTTTCTTGTTATC-3′ (SEQ ID NO: 6); Tgfb1 (forward) 5′-GACTCTCCACCTGCAAGACCAT-3′ (SEQ ID NO: 7) and (reverse) 5′-GGGACTGGCGAGCCTTAGTT-3′ (SEQ ID NO: 8); Gapdh (forward) 5′-AGCAGGCATCTGAGGGCCCA-3′ (SEQ ID NO: 9) and (reverse) 5′-TGTTGGGGGCCGAGTTGGGA-3′ (SEQ ID NO: 10). Relative gene expression quantification was performed using the ΔΔCt method with Gapdh as the normalization gene.
Because the presumed mechanism attributed to myofibroblast clearance has been that of promoting their apoptosis (20), a short-term study was performed to investigate acute changes in muscle that result from NOX4 inhibition.

With CN(C)c1cccc(-c2c3c(=O)n(-c4ccccc4Cl)[nH]c3cc(=O)n2C)c1 [FTX1620, Setanaxib] the “localization of Pax7 cells” value (D2.mdx mice [1]; D2.mdx gastrocnemius, 3 months) was “largely re-localized”, the “muscle fibers having central nuclei” value (D2.mdx mice [1]; D2.mdx gastrocnemius, 3 months) was “increases” and the “muscle fibers with expression of myosin X” value (D2.mdx mice [1]; D2.mdx gastrocnemius, 3 months) was “increases”. For the same compound, the “myofibroblast numbers (PDGFRα, vimentin, SMA labeling)” value (D2.mdx mice [1]; D2.mdx gastrocnemius, 3 months) was “significantly reduced”, the “muscle fibrosis (picrosirius red, diaphragm and gastrocnemius)” value (D2.mdx mice [1]; D2.mdx mice, 3 months of treatment, evaluated at 6 months of age, vs vehicle) was “reduced D2.mdx muscle fibrosis” and the “periostin+ area” value (D2.mdx mice [1]; D2.mdx muscle, 3 months) was “significantly reduced”. The “PDGFRα+ cells positive for active Caspase-3” value (D2.mdx mice [2]) was “significantly more”, the Acta2 expression (D2.mdx mice [2]; real-time PCR) was “decreased expression” and the Col1a2 expression (D2.mdx mice [2]; real-time PCR) was “decreased expression”. The Il6 expression (D2.mdx mice [2]; real-time PCR) was “decreased expression” and the Tgfb1 expression (D2.mdx mice [2]; real-time PCR) was “decreased expression”.
